PMC5848165 (Toxins, 2018)
Like-named read-outs stand apart in the source and are kept apart here. Residues, ends and D or L forms follow the SMILES beside them.

Legend:
[1] = test system: TTX-S sodium channels from rat DRG neurons; experiment: Whole-cell patch clamp, TTX-S sodium currents in rat DRG neurons; type: cell-based, rat (Sprague-Dawley); settings: 25 °C
[2] = test system: acetic acid-induced writhing response in mice; type: in vivo, mouse (Kunming); settings: counted 30 min after 0.8% acetic acid i.p., control 61, n = 6
Nav1.5 R800D = target: T1, Nav1.5 R800D (Rattus norvegicus, UniProt P15389, R801D); experiment: Whole-cell patch clamp, Nav1.5 mutant R800D in HEK293 cells; type: cell-based; settings: 1 µM
T1 construct: expressed in transfected cells; host or cells: HEK293 (HEK293T) cells, transient
T1 sequence (Q07699 19-218): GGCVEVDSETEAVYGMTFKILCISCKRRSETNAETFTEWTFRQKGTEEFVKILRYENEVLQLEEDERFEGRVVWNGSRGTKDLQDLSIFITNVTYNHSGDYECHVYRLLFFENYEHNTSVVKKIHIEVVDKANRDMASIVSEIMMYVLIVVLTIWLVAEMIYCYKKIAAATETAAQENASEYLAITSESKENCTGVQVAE
T1 sequence (P15389 whole entry R801D): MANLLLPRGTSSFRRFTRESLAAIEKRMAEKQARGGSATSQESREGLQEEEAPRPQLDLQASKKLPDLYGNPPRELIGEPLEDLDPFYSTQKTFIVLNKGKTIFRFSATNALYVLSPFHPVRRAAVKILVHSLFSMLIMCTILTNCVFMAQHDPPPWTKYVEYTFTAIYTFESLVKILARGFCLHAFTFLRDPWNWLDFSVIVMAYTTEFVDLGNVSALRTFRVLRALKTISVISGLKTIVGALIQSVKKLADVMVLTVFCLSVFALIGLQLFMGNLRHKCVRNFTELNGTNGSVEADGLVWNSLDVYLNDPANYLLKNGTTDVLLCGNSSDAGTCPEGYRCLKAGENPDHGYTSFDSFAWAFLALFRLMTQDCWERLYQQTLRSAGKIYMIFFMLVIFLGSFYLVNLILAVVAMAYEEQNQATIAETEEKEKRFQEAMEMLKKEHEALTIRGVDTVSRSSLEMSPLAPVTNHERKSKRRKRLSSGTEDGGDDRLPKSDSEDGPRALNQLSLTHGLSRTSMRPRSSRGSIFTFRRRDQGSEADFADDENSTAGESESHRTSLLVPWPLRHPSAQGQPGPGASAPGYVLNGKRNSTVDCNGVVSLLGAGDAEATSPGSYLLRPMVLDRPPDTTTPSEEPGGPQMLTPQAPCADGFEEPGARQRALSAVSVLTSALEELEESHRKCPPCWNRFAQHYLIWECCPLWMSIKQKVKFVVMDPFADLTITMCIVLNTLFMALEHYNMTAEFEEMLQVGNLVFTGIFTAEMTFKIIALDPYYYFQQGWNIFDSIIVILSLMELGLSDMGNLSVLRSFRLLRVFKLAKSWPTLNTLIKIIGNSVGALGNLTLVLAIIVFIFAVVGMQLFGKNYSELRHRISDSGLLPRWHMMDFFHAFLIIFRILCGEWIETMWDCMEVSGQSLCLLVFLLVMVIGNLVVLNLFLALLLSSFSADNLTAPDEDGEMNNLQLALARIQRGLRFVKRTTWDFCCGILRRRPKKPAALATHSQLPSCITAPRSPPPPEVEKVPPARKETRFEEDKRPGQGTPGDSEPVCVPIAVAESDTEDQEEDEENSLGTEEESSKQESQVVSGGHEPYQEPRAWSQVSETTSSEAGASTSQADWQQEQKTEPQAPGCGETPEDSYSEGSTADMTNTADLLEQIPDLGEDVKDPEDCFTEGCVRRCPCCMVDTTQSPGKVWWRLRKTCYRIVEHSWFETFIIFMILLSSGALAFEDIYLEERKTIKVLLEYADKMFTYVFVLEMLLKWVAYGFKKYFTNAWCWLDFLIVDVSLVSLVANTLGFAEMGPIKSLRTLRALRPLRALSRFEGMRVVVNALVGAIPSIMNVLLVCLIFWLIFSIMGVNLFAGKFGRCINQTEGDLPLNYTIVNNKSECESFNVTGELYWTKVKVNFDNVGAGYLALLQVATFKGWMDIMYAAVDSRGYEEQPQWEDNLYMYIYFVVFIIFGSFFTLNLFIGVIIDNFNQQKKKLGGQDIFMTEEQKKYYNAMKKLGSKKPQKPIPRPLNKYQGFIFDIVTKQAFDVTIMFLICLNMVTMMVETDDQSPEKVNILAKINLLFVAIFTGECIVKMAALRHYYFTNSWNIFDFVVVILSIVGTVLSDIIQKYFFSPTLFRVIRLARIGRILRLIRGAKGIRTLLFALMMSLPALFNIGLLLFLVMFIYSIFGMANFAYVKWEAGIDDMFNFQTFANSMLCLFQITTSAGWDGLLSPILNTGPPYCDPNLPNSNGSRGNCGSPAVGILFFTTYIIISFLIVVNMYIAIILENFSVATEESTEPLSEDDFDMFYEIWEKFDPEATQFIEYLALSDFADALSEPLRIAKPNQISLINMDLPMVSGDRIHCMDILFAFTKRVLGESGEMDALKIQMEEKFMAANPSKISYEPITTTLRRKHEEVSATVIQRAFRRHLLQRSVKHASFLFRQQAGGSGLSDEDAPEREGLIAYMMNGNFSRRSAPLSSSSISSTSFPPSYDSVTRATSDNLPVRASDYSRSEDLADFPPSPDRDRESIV
Source text: We next investigated the critical residues in DIIS3-S4 linker that determined the sensitivity of Nav1.7 to JZTX-34. An acidic residue, D816, is present in the DIIS3-S4 linker of Nav1.7, while the corresponding residue in Nav1.5 is an alkaline amino acid, R800. To determine whether the acidic residue D816 occupies an important role in toxin binding, we constructed two mutants: D816R of Nav1.7 and R800D of Nav1.5. One µM of JZTX-34 inhibited 54.3 ± 5.2% of WT Nav1.7 currents (Figure 4A), but only 16.8 ± 4.6% currents of D816R were inhibited at the same concentration (Figure 4B). […]
The HEK293T cells were maintained in standard culture conditions (5% CO2 and 37 °C). […] After culturing for 36–72 h, cells with obvious green fluorescence were selected for sodium currents recordings the internal solution for sodium currents recording that contained (in mM) 140 CsF, 5 NaCl, 10 HEPES, 3 Na2-ATP, and 10 EGTA. […]
Sodium currents were recorded from DRG, HEK293, and ND cells by the whole-cell patch-clamp technique at 25 °C. […] Experiments date were acquired from whole-cell Axon 700B patch clamp amplifier (Molecular Devices, Sunnyvale, CA, USA) and analyzed by the program Clampfit10.0 (Molecular Devices, Sunnyvale, CA, USA) and Sigmaplot. […]
Data from Axon 700B patch clamp were analyzed by Clampfit10.0 (Molecular Devices, Sunnyvale, CA, USA). […]

[3] = test system: TTX-R sodium channels from rat DRG neurons; settings: ref [18]; cited from earlier work
Source text: In this study, the analgesic effect and mechanism of JZTX-34 on pain were investigated.

## CC(C)C[C@@H]1NC(=O)[C@H](Cc2c[nH]c3ccccc23)NC(=O)[C@H](CCC(=O)O)NC(=O)[C@H](CCCNC(=N)N)NC(=O)[C@@H](NC(=O)[C@H](C)N)CSSC[C@@H]2NC(=O)[C@@H]3CSSC[C@@H](C(=O)N[C@H](C(=O)N[C@@H](Cc4c[nH]c5ccccc45)C(=O)N[C@@H](CC(=O)O)C(=O)N[C@@H](Cc4c[nH]c5ccccc45)C(=O)N[C@H](C(=O)N[C@H](C(=O)O)C(C)C)[C@@H](C)O)C(C)C)NC(=O)[C@H](Cc4c[nH]cn4)NC(=O)[C@H](Cc4ccc(O)cc4)NC(=O)[C@@H]4CCCN4C(=O)[C@H](Cc4c[nH]c5ccccc45)NC(=O)[C@H](CCCCN)NC(=O)[C@H](CCCCN)NC(=O)[C@H](CCCNC(=N)N)NC(=O)[C@H](CSSC[C@H](NC(=O)CNC(=O)CNC1=O)C(=O)N[C@@H](CO)C(=O)N[C@@H](CCCCN)C(=O)N[C@@H](CC(=O)O)C(=O)N[C@@H](C)C(=O)N[C@@H](CC(=O)O)C(=O)N3)NC(=O)[C@H](CCC(=O)O)NC(=O)[C@H](CC(C)C)NC(=O)[C@H](Cc1c[nH]cn1)NC(=O)[C@H](C)NC2=O [JZTX-34, Jingzhaotoxin-34] (HELM PEPTIDE1{A.C.R.E.W.L.G.G.C.S.K.D.A.D.C.C.A.H.L.E.C.R.K.K.W.P.Y.H.C.V.W.D.W.T.V}$PEPTIDE1,PEPTIDE1,2:R3-16:R3|PEPTIDE1,PEPTIDE1,9:R3-21:R3|PEPTIDE1,PEPTIDE1,15:R3-29:R3$$$V2.0; N-terminus and C-terminus assumed)
[1]; 1 µM synthetic JZTX-34, 50 ms depolarization to −10 mV from −80 mV
  inhibition of TTX-S sodium currents: ~ 81%
[1]; synthetic toxin, Hill fit, n = 5, −10 mV from −80 mV holding
  IC50: 91 nM
[2]; 0.5 mg/kg i.p.
  number of writhing: 38
[2]; 1 mg/kg i.p.
  number of writhing: 26
[2]; 2 mg/kg i.p.
  number of writhing: 11
Nav1.5 R800D
  inhibition of Nav1.5 R800D currents: obviously inhibited
[3]
  effect on TTX-R sodium currents (previous work): no inhibition on tetrodotoxin-resistant (TTX-R) sodium currents
